From ChEMBL document CHEMBL1201862, “PubChem BioAssay data set” (2004)
The source made the active and inactive calls.

Legend:
Jurkat [1] = assay: antigen receptor-induced NF-kB inhibitors, dose response, Jurkat, luciferase reporter, luminescence, B- and T-cell (AID 489004); assay type: functional, cell-based; conditions: Homo sapiens;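 note: NF-kB luciferase reporter Jurkat cells stimulated with PMA plus ionomycin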
[2] = cytotoxicity in HEK-293T NF-kB-Luc cells, dose response, cytotoxicity control for B/T-cell NF-kB inhibitor project, cell-based, uHTS hits (AID 489019); assay type: functional;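 note: IC50 reflects cytotoxicity as loss of cell viability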
[3] = molecular target: T1, COUP transcription factor 2 (Homo sapiens, UniProt P24468); assay: Luminescence-based cell-based high throughput dose response assay to identify inhibitors of COUP-TFII (NR2F2).; assay type: functional;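 note: HEK293 cells transiently cotransfected with COUP-TFII expression vector and reporter; luciferase reporter luminescence driven by COUP-TFII from the pX2-168 reporter plasmid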
T1 sequence (P24468 whole entry): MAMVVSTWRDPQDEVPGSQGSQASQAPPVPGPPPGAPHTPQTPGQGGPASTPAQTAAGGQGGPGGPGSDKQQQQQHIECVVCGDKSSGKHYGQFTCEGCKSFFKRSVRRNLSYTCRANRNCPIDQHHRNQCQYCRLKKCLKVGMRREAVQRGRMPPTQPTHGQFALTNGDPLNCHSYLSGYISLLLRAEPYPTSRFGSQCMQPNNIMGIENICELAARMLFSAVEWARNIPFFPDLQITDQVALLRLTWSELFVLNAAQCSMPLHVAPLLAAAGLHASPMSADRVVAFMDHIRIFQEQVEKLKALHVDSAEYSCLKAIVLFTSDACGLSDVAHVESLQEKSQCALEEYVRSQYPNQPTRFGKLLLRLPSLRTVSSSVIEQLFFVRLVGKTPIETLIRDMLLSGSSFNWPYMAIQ

[4] = inhibitors of firefly luciferase expression or activity, dose response, H4 neuroglioma cells, luminescence (AID 1990); assay type: functional, cell-based
[5] = molecular target: T2, Heat shock factor protein 1 (Mus musculus, UniProt P38532); assay: inhibition of MG132-induced HSE-luciferase signal, confirmation, cell-based, NIH3T3, luminescence, dose retest (AID 2382); assay type: functional;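 note: NIH3T3 fibroblasts with HSF1-driven luciferase reporter stressed by proteasome inhibitor MG132; luminescence from HSF1-driven luciferase expression after 8 hours of MG132 stress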
T2 sequence (P38532 whole entry): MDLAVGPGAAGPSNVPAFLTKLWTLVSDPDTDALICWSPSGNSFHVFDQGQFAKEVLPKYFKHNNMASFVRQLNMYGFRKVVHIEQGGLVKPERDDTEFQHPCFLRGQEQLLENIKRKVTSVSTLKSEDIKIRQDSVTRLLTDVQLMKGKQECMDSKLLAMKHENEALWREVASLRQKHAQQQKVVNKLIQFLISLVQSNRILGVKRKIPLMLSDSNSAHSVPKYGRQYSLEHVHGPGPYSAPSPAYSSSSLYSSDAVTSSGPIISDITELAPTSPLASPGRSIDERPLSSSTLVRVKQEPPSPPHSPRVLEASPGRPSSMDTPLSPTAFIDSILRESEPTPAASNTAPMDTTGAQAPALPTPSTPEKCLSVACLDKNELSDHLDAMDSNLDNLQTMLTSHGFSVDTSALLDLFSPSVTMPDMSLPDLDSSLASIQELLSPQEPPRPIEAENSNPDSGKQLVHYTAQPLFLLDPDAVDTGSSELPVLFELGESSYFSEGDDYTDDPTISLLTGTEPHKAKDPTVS

[6] = inhibitors of SNCA 5'UTR-driven reporter translation, confirmation, H4 neuroglioma cells, luminescence (AID 1988); assay type: functional, cell-based
[7] = Luminescence Cell-Based Dose Response HTS to Identify Inhibitors of 5'UTR Stem-Loop Driven Prion Protein mRNA Translation in H4 Neuroglioblastoma Cells. [Related pubchem assays: 1827 (Project Summary), 1813 (Primary HTS)]; assay type: functional
HEK293 [8] = assay: optical interference in Abeta FP readout, dose response, artefact control for IDE activator project, biochemical, fluorescence polarization (AID 588442); assay type: functional, cell-based; conditions: Homo sapiens
Cytochrome P450 1A2 = molecular target: T3, Cytochrome P450 1A2 (Homo sapiens, UniProt P05177);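 note: PubChem cytochrome P450 panel assay, CYP1A2 panel member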
T3 sequence (P05177 whole entry): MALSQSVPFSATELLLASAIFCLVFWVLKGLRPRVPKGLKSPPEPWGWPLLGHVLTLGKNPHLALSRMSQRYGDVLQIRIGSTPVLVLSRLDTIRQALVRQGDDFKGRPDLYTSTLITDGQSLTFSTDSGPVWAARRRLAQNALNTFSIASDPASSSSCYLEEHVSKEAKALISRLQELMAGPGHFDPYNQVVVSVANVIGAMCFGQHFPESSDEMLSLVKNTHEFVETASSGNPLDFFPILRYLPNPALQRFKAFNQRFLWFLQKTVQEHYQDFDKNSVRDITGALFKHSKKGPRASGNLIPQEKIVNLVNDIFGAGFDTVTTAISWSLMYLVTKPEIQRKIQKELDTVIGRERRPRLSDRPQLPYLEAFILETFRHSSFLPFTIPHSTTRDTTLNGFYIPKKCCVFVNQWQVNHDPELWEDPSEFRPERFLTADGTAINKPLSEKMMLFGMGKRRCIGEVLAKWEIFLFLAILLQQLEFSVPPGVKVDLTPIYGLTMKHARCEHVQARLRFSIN

HEK293 [9] = assay: HEK cell cytotoxicity by LDH release, dose response, cytotoxicity control for IDE activator project, fluorescence, HEK cells (AID 588440); assay type: functional, cell-based; conditions: Homo sapiens;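 note: cytotoxicity by LDH release measuring loss of membrane integrity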
Insulin-degrading enzyme [10] = molecular target: T4, Insulin-degrading enzyme (Homo sapiens, UniProt P14735); assay: activators of endogenous IDE in HEK cells, dose response, cell-based, fluorescence polarization (AID 588439); assay type: functional
T4 sequence (P14735 whole entry): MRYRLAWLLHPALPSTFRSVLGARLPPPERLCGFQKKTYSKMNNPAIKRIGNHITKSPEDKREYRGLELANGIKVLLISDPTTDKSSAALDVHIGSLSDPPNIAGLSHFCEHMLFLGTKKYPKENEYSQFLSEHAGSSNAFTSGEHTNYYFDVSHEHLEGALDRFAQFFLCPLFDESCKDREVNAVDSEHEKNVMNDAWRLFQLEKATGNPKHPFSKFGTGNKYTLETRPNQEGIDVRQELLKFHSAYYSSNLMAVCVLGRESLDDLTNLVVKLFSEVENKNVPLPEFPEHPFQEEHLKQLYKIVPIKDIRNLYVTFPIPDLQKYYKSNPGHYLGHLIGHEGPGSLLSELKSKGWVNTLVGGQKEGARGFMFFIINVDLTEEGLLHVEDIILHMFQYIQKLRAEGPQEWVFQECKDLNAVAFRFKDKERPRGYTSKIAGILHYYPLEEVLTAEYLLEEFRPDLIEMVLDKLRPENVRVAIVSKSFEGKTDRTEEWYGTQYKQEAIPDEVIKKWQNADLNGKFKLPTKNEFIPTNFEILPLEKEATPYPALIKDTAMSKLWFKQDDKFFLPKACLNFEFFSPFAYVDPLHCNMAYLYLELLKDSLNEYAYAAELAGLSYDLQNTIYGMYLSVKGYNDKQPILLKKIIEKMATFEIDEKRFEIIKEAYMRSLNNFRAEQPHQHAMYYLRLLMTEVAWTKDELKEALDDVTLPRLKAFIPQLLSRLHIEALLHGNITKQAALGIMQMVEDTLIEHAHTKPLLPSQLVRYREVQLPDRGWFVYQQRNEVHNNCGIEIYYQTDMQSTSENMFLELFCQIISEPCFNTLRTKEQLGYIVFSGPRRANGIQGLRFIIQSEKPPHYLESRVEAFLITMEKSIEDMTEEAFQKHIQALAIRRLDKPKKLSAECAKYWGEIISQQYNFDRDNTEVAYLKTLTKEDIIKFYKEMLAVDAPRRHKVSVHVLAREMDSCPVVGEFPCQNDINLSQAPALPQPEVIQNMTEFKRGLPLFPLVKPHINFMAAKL

Insulin-degrading enzyme [11] = molecular target: T4, Insulin-degrading enzyme; assay: activators of recombinant IDE enzyme, dose response, counter-screen for IDE activator project, biochemical, fluorescence polarization (AID 588681)
[12] = molecular target: T5, Orexin/Hypocretin receptor type 1 (Homo sapiens, UniProt O43613); assay: Fluorescence-based cell-based high throughput dose response assay for antagonists of the orexin 1 receptor (OX1R; HCRTR1). [Related pubchem assays (depositor defined):AID434989, AID435008, AID463079, AID485270, AID492963, AID492964, AID492965, AID493232, AID504717, AID504718]; assay type: functional
T5 sequence (O43613 whole entry): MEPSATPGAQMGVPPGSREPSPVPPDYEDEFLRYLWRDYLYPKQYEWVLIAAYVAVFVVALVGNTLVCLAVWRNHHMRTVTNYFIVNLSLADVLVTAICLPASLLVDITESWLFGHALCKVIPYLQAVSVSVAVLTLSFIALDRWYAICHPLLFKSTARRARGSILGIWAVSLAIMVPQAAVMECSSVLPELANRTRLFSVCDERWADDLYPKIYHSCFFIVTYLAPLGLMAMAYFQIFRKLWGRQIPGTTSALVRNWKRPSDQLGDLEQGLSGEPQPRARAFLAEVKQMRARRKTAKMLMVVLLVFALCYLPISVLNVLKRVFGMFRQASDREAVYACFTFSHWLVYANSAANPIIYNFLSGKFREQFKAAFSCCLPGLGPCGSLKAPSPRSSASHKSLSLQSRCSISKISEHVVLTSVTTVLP

[13] = molecular target: T5, Orexin/Hypocretin receptor type 1; assay: Homogeneous Time Resolved Fluorescence (HTRF)-based cell-based high throughput dose response assay for antagonists of the orexin 1 receptor (OX1R; HCRTR1). [Related pubchem assays (depositor defined):AID434989, AID435008, AID463079, AID485270, AID492963, AID492964, AID492965, AID493232, AID504717, AID504718]; assay type: functional
[14] = Counterscreen for antagonists of the orexin 1 receptor (OX1R; HCRTR1): Fluorescence-based cell-based high throughput dose response assay to identify antagonists of the parental CHO cell line. [Related pubchem assays (depositor defined):AID434989, AID435008, AID463079, AID485270, AID492963, AID492964, AID492965, AID493232, AID504699, AID504701]; assay type: functional
CHO-K1 = assay: Counterscreen for antagonists of the orexin 1 receptor (OX1R; HCRTR1): Homogeneous time resolved fluorescence (HTRF)-based cell-based dose response assay to identify antagonists of the parental CHO-K1 cell line. [Related pubchem assays (depositor defined):AID434989, AID435008, AID463079, AID485270, AID492963, AID492964, AID492965, AID493232, AID504699, AID504701]; assay type: functional; conditions: Cricetulus griseus;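 note: potency for inhibition of ATP-stimulated IP1 production as antagonists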
Orexin receptor type 2 [15] = molecular target: T6, Orexin receptor type 2 (Homo sapiens, UniProt O43614); assay: Counterscreen assay for antagonists of the orexin 1 receptor (OX1R; HCRTR1): Homogeneous Time Resolved Fluorescence (HTRF)-based cell-based dose response assay for antagonists of the orexin 2 receptor (OX2R; HCRTR2), run by assay provider.; assay type: functional
T6 sequence (O43614 whole entry): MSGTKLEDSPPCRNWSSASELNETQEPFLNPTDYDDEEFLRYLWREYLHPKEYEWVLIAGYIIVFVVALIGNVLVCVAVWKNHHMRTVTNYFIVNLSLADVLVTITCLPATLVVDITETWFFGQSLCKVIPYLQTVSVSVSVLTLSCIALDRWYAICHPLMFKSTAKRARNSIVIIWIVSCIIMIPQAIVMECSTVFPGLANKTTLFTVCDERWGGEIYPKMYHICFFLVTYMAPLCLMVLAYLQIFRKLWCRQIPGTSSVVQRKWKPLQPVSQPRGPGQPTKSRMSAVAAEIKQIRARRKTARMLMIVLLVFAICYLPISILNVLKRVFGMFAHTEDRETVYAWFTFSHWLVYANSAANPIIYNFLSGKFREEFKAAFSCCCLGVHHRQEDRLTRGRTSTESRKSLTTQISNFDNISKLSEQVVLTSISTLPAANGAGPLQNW

Orexin receptor type 2 [16] = molecular target: T6, Orexin receptor type 2; assay: Counterscreen assay for antagonists of the orexin 1 receptor (OX1R; HCRTR1): Fluorescence-based cell-based dose response assay for antagonists of the orexin 2 receptor (OX2R; HCRTR2), run by assay provider.; assay type: functional
Jurkat [17] = assay: SAR Analysis of small molecule inhibitors of T-cell specific antigen receptor-induced NF-kB activation in a Jurkat cell line using a luminescence assay - Set 2. [Related pubchem assays (depositor defined):AID435003, AID435012, AID465]; assay type: functional, cell-based; conditions: Homo sapiens
HEK293 [18] = assay: cytotoxicity in HEK293T NF-kB-Luc cells, SAR follow-up, cytotoxicity control for NF-kB activator project, cell-based, resazurin fluorescence (AID 493251); assay type: functional; conditions: Homo sapiens
HEK293 [19] = assay: SAR Analysis of small molecule inhibitors of T-cell specific antigen receptor-induced NF-kB activation in a HEK-293T cell line using a luminescence assay - Set 2. [Related pubchem assays (depositor defined):AID435003, AID435012, AID489026]; assay type: functional, cell-based; conditions: Homo sapiens

COc1ccc(NS(=O)(=O)c2cccc(NC(=O)c3ccc(Cl)nc3)c2)cc1
IC50 (Jurkat [1]): 38.2 µM (inactive)
IC50 [2]: > 80 µM (inactive)
IC50 [3]: 3.21 µM (active)

Cc1ccc(C(=O)Nc2cccc(C(F)(F)F)c2)cc1NC(=O)c1ccno1
EC50 [4]: < 0.1 µM (active)
IC50 (Jurkat [1]): > 80 µM (inactive)
IC50 [2]: > 80 µM (inactive)
EC50 [5]: 0.333 µM (active)
EC50 [6]: 0.285 µM (active)
EC50 [7]: 6.47 µM (active)

Cc1ccccc1OC/C(O)=C(\C#N)c1nc2ccccc2[nH]1
EC50 (HEK293 [8]): > 54.7 µM (inactive)
AC50 (Cytochrome P450 1A2): 0.282 µM (inconclusive)
IC50 (HEK293 [9]): > 89.2 µM (inactive)
EC50 (Insulin-degrading enzyme [10]): > 54.7 µM (inactive)
EC50 (Insulin-degrading enzyme [11]): > 54.7 µM (inactive)

N#Cc1cccn1-c1nccc(-c2cccs2)n1
IC50 [12]: 20.3 µM (inactive)
IC50 [13]: 3.66 µM (active)
IC50 [14]: > 49.7 µM (inactive)
IC50 (CHO-K1): > 66.2 µM (inactive)
IC50 (Orexin receptor type 2 [15]): > 50 µM (inactive)
IC50 (Orexin receptor type 2 [16]): > 88.8 µM (inactive)

CCCCC(=O)NC(c1ccc(C)cc1)c1ccc2cccnc2c1O (stereo not drawn)
IC50 (Jurkat [17]): 2.65 µM (active)
IC50 (HEK293 [18]): 26.1 µM (inactive)
IC50 (HEK293 [19]): 2.78 µM (active)
